Results on two molecules are retold here after patent US10213394B1, “Composition and method for treating neurological disease” (Osmotica Kereskedelmi és Szolgáltató Korlátolt Felelõsségû …, priority 2018, dated 2019).

Usually half-life stands for the time needed for the level to fall by half in the phase considered.

For series [1] the following is noted: cited from earlier work.
Another series relates to plasma proteins. Particulars: concentration range of 0.1 to 2.0 μg/mL; cited from earlier work.
For series [2] the following is noted: cited from earlier work. The source holds these as a separate data set.
Series [3] can be described thus: Solubility of amantadine HCl in water. The settings on record: 160 mg, 240 mg and 320 mg of amantadine HCl. The series is classed as physicochemical.

Counter-ions that a name gives are not always drawn.

`NC12CC3CC(CC(C3)C1)C2` [Amantadine, amantadine]: in series [1] (after intravenous administration), the volume of distribution is 3 to 8 L/kg. Moreover, the “reduction of renal clearance of amantadine” value in series [1] (coadministration of quinine or quinidine) is given as “about 30%”. In series [1] (in vivo), the “administered dose excreted unchanged in urine” value is reported as “approximately 85%” and the “metabolism as share of total clearance” value is on record as 5-15%. In addition, the “bound to plasma proteins” value in the series on plasma proteins was 67%. Also, in series [2] (patients on chronic maintenance hemodialysis), the average elimination half-life entry was “eight days”. Besides, in series [2] (single dose 25 to 75 mg, 7 healthy elderly male volunteers, range 0.06 to 0.17), the apparent plasma clearance is 1.67 ± 0.67 mL/min/kg. Further, in series [2] (single dose 25 to 75 mg, 7 healthy elderly male volunteers, range 20 to 41), the half-life was 29 ± 7 h.

For the molecule `NC12CC3CC(CC(C3)C1)C2` [amantadine HCl, Amantadine Hydrochloride], the solubility in water result in series [3] is “soluble in 250 mL water”.
